Experimental findings from ChEMBL document CHEMBL4417639, “Nt5c2 inhibitors useful for the treatment of chemotherapy resistant acute lymphoblastic leukemia” (2018) are described below.

The target of assay [1] is Cytosolic purine 5'-nucleotidase (Homo sapiens) (UniProt P49902). The assay can be described thus: Inhibition of basal nucleotidase activity of recombinant NT5C2 (unknown origin) pre-incubated for 10 mins before IMP substrate addition and further incubated for 5 mins in absence of ATP by malachite green assay.
Sequence of Cytosolic purine 5'-nucleotidase (Homo sapiens) (P49902 whole entry): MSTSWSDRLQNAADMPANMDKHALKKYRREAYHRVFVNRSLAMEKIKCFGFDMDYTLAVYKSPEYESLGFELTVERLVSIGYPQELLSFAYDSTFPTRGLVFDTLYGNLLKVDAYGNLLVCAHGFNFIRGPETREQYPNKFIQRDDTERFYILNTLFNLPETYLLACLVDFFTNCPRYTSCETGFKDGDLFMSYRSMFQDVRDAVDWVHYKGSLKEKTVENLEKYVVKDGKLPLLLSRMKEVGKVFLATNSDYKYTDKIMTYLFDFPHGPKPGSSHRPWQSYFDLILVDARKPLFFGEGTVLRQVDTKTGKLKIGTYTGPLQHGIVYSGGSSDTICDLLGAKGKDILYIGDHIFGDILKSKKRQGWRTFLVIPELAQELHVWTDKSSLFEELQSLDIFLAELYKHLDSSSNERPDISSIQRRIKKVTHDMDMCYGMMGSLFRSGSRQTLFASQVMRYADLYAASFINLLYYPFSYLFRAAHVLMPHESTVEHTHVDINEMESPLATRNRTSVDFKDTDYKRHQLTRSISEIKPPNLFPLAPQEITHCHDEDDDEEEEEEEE
Assay [2] has the same target. Put plainly: Inhibition of nucleotidase activity of recombinant NT5C2 (unknown origin) pre-incubated for 10 mins before IMP substrate addition and further incubated for 5 mins in presence of 0.3 mM ATP by malachite green assay relative to control.

The source made the active and inactive calls. The calls are words filed in the database; no cut-off is given here.

Regarding `Nc1nc2c(c(N3CCc4nc(N)sc4C3)n1)CCCC2`, the inhibition result in assay [1] was “Active”. The inhibition in assay [2] is 42%.

As for `CCc1c(C)nc(N)nc1NCCc1csc(N)n1`, the inhibition entry in assay [1] was “Active”. For the same molecule, the inhibition in assay [2] turned out to be 49%.

Consider `CCc1nc(N)nc(N2CCCOC(CN3CCOCC3)C2)c1C` (stereo unspecified), for which the inhibition result in assay [1] was “Active”. Moreover, the inhibition in assay [2] came to 29%.

Consider `Cc1nc(N2CCC(c3cc(CC(=O)O)n[nH]3)CC2)cc(-n2cccn2)n1`, for which the inhibition entry in assay [1] was “Active”. Further, in assay [2], the inhibition was 49%.

Consider `Nc1nc2c(c(NCCc3csc(N)n3)n1)CCCC2`, for which the inhibition entry in assay [1] was “Active”. Moreover, the inhibition in assay [2] was 75%.

Take `Nc1nc(N2CCOCC2)cc(N2CCC(c3cc(CC(=O)O)[nH]n3)CC2)n1`: in assay [1], the inhibition result was “Active”. Besides, the inhibition in assay [2] came to 85%.

Consider `Cc1cc(N2CCC(c3cc(CC(=O)O)n[nH]3)CC2)nc(N2CCCC2)n1`, for which, in assay [1], the inhibition result is “Active”. Further, in assay [2], the inhibition was 62%.

With `CCc1cc(NCCCc2csc(N)n2)nc(N)n1`, the inhibition result in assay [1] is “Active”. The inhibition in assay [2] amounted to 54%.

The term inhibition denotes how much of the control response was suppressed.
